Measured values published in patent EP4772161A1, “SKIN COSMETIC COMPOSITION CONTAINING BOTRYOCOCCENE AS ACTIVE INGREDIENT” (Phycochemy Corporation, priority 2023, dated 2025).

Columns and labels:
Format in all cases: cell-based, human
[1] = test system: MMP-1; experiment: MMP-1 production by NHDF cells treated with supernatant (K-CM) of UVB-irradiated NHEK cells (ELISA, per unit protein)
Description: (§1) Normal human epidermal keratinocytes (NHEKs) were cultured in HuMedia-KG2 (KG2) medium containing 10% fetal bovine serum, 1% antibiotic and 1% human epidermal keratinocyte growth supplement, in a 37°C, 5% CO2 incubator.
(§2) Normal human skin fibroblasts (NHDFs) were cultured in DMEM with addition of 10% fetal bovine serum, 1% antibiotic and 1% human epidermal keratinocyte growth supplement, in a 37°C, 5% CO2 incubator.
(§3) NHEK cells were seeded on a 96-well plate at a density of 2.5 × 10^4 cells/well in KG2 medium, and incubated for 24 hours. The supernatant was aspirated, the medium was exchanged with KB2 medium containing 0, 25, 50, 100 and 200 µM botryococcene, and culturing was continued for 24 hours, after which the cells were washed with PBS and the medium was replaced with HBSS. The cells were then irradiated with UVB (280 to 320 nm, 20 mJ/cm^2) and cultured for 24 hours in fresh KB2 medium. After culturing, the supernatant (K-CM) was collected. NHDF cells were seeded on a 96-well plate at a density of 2.0 × 10^4 cells/well in DMEM medium, and incubated for 24 hours. […] The cells were then dissolved in 50 µL of PBS containing 0.5% Triton^R X-100, and the protein level was quantified with a BCA Protein Assay Kit (product of Thermo Fisher Scientific), calculating the type I collagen and MMP-1 production per unit protein.

[2] = test system: IL-1α; experiment: IL-1α production in culture supernatant of NHEK cells, with or without UVB irradiation (ELISA, per unit protein)
Description: as §1
(§4) NHEK cells were seeded on a 96-well plate at a density of 2.5 × 10^4 cells/well in KG2 medium, and incubated for 24 hours. The supernatant was aspirated, the medium was exchanged with KB2 medium containing 0, 25, 50, 100 and 200 µM botryococcene, and culturing was continued for 24 hours, after which the cells were washed with PBS and the medium was exchanged with HBSS. The cells were then irradiated with UVB (280 to 320 nm, 20 mJ/cm^2) and cultured for 24 hours in fresh KB2 medium. The IL-1α and PGE2 expression levels in the culture supernatants were measured using an ELISA measuring kit. The cells were then dissolved in 50 µL of PBS containing 0.5% Triton^R X-100, the protein level was quantified, and the IL-1α and PGE2 production levels per unit protein were calculated.

[3] = test system: NHEK cells; experiment: Protection against cytotoxicity induced by H2O2 (Neutral Red uptake); settings: botryococcene 25-200 µM for 24 hours, then 300 µM H2O2 for 1 hour
Description: as §1
NHEK cells were seeded on a 96-well plate at a density of 2.5 × 10^4 cells/well in KG2 medium, and incubated for 24 hours. The supernatant was aspirated, the medium was exchanged with KB2 medium containing 0, 25, 50, 100 and 200 µM botryococcene, and incubation was carried out for 24 hours. After culturing, the cells were washed for 1 hour with HBSS containing PBS and 300 µM H2O2, and the cells were then incubated for 24 hours in KB2 medium. After incubation, the cells were washed with PBS, the medium was exchanged with KB2 medium containing 0.003% Neutral Red, and culturing was carried out for 2 hours. After culturing, the cells were washed with PBS. The Neutral Red in the cells was extracted with 1 M HCl in 30% MeOH. The absorbance at 550 nm was measured with a microplate reader.

[4] = test system: NHEK cells; experiment: Fluorescent bead (FluoSpheres) phagocytosis induced by UVB irradiation; settings: UVB 20 mJ/cm^2
Description: as §1
NHEK cells were seeded on a 96-well plate at a density of 2.5 × 10^4 cells/well in KG2 medium, and incubated for 24 hours. The supernatant was aspirated, the medium was exchanged with KB2 medium containing 0, 25, 50, 100 and 200 µM botryococcene, and culturing was continued for 24 hours, after which the cells were washed with PBS and the medium was replaced with HBSS. The cells were then irradiated with UVB (280 to 320 nm, 20 mJ/cm^2) and cultured for 24 hours in fresh KB2 medium. After replacing the medium with of KB2 medium containing FluoSpheres™ and allowing the cells to stand for 4 hours, they were dissolved with 50 µL of PBS containing 0.5% Triton^R X-100 and the fluorescence of the cell lysate was measured with a microplate reader. The fluorescence of the cell lysate was detected with a fluorescence reader at an excitation/luminous wavelength of 535 nm/590 nm. The cells were then dissolved in 50 µL of PBS containing 0.5% Triton^R X-100, the protein level was quantified, and the fluorescence intensity per unit protein was normalized.

[5] = test system: NHEK cells; experiment: Cytotoxicity with botryococcene treatment (Neutral Red uptake); settings: 24 hours
Description: as §1
NHEK cells were seeded on a 96-well plate at a density of 2.5 × 10^4 cells/well in KG2 medium, and incubated for 24 hours. The supernatant was aspirated, the medium was exchanged with HuMedia-KB2 (KB2) medium containing 0, 12.5, 25, 50, 100, 200 and 400 µM botryococcene, and the mixture was incubated for 24 hours. After culturing, the cells were washed with PBS, the medium was exchanged with KB2 medium containing 0.003% Neutral Red, and culturing was carried out for 2 hours. The Neutral Red in the cells was extracted with 1 M HCl in 30% MeOH. The absorbance at 550 nm was measured with a microplate reader.

[6] = test system: PGE2; experiment: PGE2 production in culture supernatant of NHEK cells, with or without UVB irradiation (ELISA, per unit protein)
Description: as §1, §4

[7] = test system: intracellular ROS; experiment: Intracellular reactive oxygen species removal (DCFH-DA fluorescence per unit protein); settings: NHEK cells, botryococcene 25-200 µM for 24 hours
Description: as §1
NHEK cells were seeded on a 96-well plate at a density of 2.5 × 10^4 cells/well in KG2 medium, and incubated for 24 hours. The supernatant was removed, the medium was exchanged with KB2 medium containing 0, 25, 50, 100 and 200 µM botryococcene, and incubation was carried out for 24 hours. After culturing, the cells were washed with PBS, the medium was exchanged with HBSS buffer containing 200 µM H2O2, and culturing was continued for 1 hour. The supernatant was removed and culturing was carried out for 30 minutes in HBSS buffer containing 20 µM DCFH-DA. The fluorescence intensity was measured with a microplate reader ([…]). The cells were then dissolved in 50 µL of PBS containing 0.5% Triton^R X-100, the protein level was quantified, and the fluorescence intensity per unit protein was normalized.

[8] = test system: type I collagen; experiment: Type I collagen production by NHDF cells treated with supernatant (K-CM) of UVB-irradiated NHEK cells (ELISA, per unit protein)
Description: as §1, §2, §3

[9] = NHDF cells with K-CM of UVB-irradiated NHEK cells pretreated with botryococcene 200 µM
[10] = NHDF cells with K-CM of UVB-irradiated NHEK cells pretreated with botryococcene 25 to 100 µM
[11] = botryococcene 200 µM, UVB 20 mJ/cm^2
[12] = botryococcene 25 to 100 µM, UVB 20 mJ/cm^2

C=C[C@@](C)(/C=C/[C@H](C)CC[C@H](C)C(=C)CC[C@H](C)C(=C)C)CC[C@H](C)C(=C)CC[C@H](C)C(=C)C [botryococcene]
inhibiting effect on acceleration of MMP-1 production [1, 9]: less prominent than with 50 µM or 100 µM | acceleration of MMP-1 production [1, 10]: inhibited the reduction in collagen production and acceleration of MMP-1 production in a concentration-dependent manner up to 100 µM | Induction of IL-1α production [2, 11]: not inhibited | IL-1α production induced by UVB irradiation [2, 12]: inhibited all of the IL-1α and PGE2 production induced by UVB irradiation in a concentration-dependent manner up to 100 µM | amount of IL-1α produced ([2]; non-UVB-irradiated conditions, botryococcene up to 100 µM): reduced by botryococcene in a concentration-dependent manner up to 100 µM for IL-1α | reduction in cell viability by H2O2 treatment [3]: restored by addition of botryococcene, in a concentration-dependent manner | effect of inhibiting fluorescent bead phagocytosis ([4]; botryococcene 200 µM): less prominent than with 50 µM or 100 µM | fluorescent bead phagocytosis by UVB irradiation ([4]; botryococcene 25 to 100 µM): inhibited fluorescent bead phagocytosis by UVB irradiation in a concentration-dependent manner up to 100 µM | cell viability ([5]; botryococcene 0 to 200 µM): No change in cell viability was observed | cell viability ([5]; botryococcene 400 µM): a notable reduction was observed | Induction of PGE2 production [6, 11]: not inhibited | PGE2 production induced by UVB irradiation [6, 12]: inhibited all of the IL-1α and PGE2 production induced by UVB irradiation in a concentration-dependent manner up to 100 µM | amount of PGE2 produced ([6]; non-UVB-irradiated conditions, botryococcene up to 50 µM): reduced by botryococcene in a concentration-dependent manner | intracellular ROS concentration ([7]; then 200 µM H2O2 treatment for 1 hour): decrease in a concentration-dependent manner | intracellular ROS concentration ([7]; without H2O2 treatment): decrease in a concentration-dependent manner | inhibiting effect on reduction in collagen production [8, 9]: less prominent than with 50 µM or 100 µM | reduction in collagen production [8, 10]: inhibited the reduction in collagen production and acceleration of MMP-1 production in a concentration-dependent manner up to 100 µM
